Experimental data reported in US12409151B2, “Transdermal device comprising NSAID or analgesic prodrug molecules” (Remedy Diagnostics LLC, priority 2019, dated 2025).
In brackets after ≈: the same amount, converted by molar mass. Several values for one entry are separate records, joined by “and”; a condition that tells them apart may be missing. Equal entries are not always repeated. Where two headings read alike, the source gives them in different places. One block for each compound: values may come before it.

Key:
physchem = settings: for solubility: organic solvent or mixture, thermodynamic from solid, solubility in F1
Experimental: This example illustrates the solubilities of APAP, IBU, Pro-APAP, and Pro-IBU in vehicle formulations F1 and F2.
Formulation F1 consisted of 50% Polyethylene Glycol (MW grade: 400) in 50% Ethanol. 50.2 mg of IBU was dissolved in 10.0 mL of F1, to produce a solution with a concentration of 5.02 mg/mL.

[1] = Skin permeation across excised human skin (Franz cell), UV-Vis of receptor media; format: in vitro ADME
Experimental: Skin Permeation Studies: Upon completion of the solubility and stability studies, the ability of the compound to permeate the skin in the selected solvent/vehicle was tested and the rate of permeation was measured to determine whether the compound permeated to an extent relevant for clinical use in a transdermal patch. Specifically, 4-acetoxyacetanilide was assessed for skin permeation across human skin over a 24 h time period.
Methods: For the skin permeation studies, a sample chamber containing 5 mL of 50% Polyethylene glycol 400 in ethanol was used as the receptor media. An initial sample of receptor media was drawn at the onset of testing to test for interferents and subsequent samples of 1 mL each were taken at the following time-points: 0.5 h, 1 h, 2 h, 5 h, 8 h, and 24 h. These samples were analyzed via UV-Vis spectroscopy (Tecan m200 Infinity Multi-Well Plate Reader) for absorbance at 246 nm and were blanked relative to that of the empty vehicle.
Materials: 4-acetoxyacetanilide (Pro-APAP), Formulation Solvent: 50% DMSO in Polyethylene Glycol 400, and Receptor Media: 50% Ethanol in Polyethylene Glycol 400 at 37° C.
Skin permeation studies: Upon completion of the solubility and stability studies, the ability of the pro-IBU compound to permeate the skin in the selected solvent/vehicle was tested and the rate of permeation was measured to determine whether the compound will permeate to an extent relevant for clinical use in a transdermal patch. Specifically, ethyl 2-(4-isobutylphenyl)-propanoate was assessed for skin permeation across human skin over a 24 h time period.
Materials: ethyl 2-(4-isobutylphenyl)-propanoate (pro-IBU), Formulation Solvent: 50% DMSO in Polyethylene Glycol 400, Receptor Media: 50% Ethanol in Polyethylene Glycol 400 at 37° C.

[2] = Solutions in permeation enhanced vehicle formulation F3; format: physicochemical; settings: F3: 33.3% DMSO and 66.6% ethanol; dissolved in neat ethanol, then DMSO added
Experimental: A permeation enhanced vehicle formulation F3 was developed consisting of 33.3% dimethylsulfoxide (DMSO) and 66.6% ethanol. A solution of Pro-APAP in F3 was prepared by first dissolving 30.5 mg of Pro-APAP into 2 mL neat ethanol, and then slowly adding 1 mL DMSO to reach a 3 mL 10.1 mg/mL solution with a final DMSO concentration of 33.3%.
A solution of Pro-IBU in F3 was prepared by first dissolving 67.0 mg of Pro-IBU into 1 mL neat ethanol, and then slowly adding 0.50 mL DMSO to reach 1.5 mL of a 44.6 mg/mL solution with a final DMSO concentration of 33.3%.

[3] = Stability of prodrugs in vehicle F3, monitored visually; format: physicochemical
Experimental: This example evaluated the stability of each of the prodrugs in vehicle F3.
A 50 mg/ml solution of Pro-APAP in F3 was prepared and monitored visually for three months to check for stability. […] was determined to be stable in this solution for the duration of the experiment.
A 70 mg/ml solution of Pro-IBU in F3 was prepared and monitored visually for three months to check for stability. […] was determined to be stable in this solution for the duration of the experiment.

[4] = cited from earlier work
[5] = 5 Hr, cumulative mass into receptor media, excised human skin, Franz cell 0.64 cm^2, 37° C.
[6] = 8 Hr, cumulative mass into receptor media, excised human skin, Franz cell 0.64 cm^2, 37° C.
[7] = 24 Hr, cumulative mass into receptor media, excised human skin, Franz cell 0.64 cm^2, 37° C.
[8] = 24 h, excised human skin, Franz cell, 37° C., 50% DMSO in PEG 400

- solubility (physchem): 12.8 mg/mL (≈ 84.7 mM)
Structure (SMILES): CC(=O)Nc1ccc(O)cc1 [APAP, acetaminophen, reference compound]

Structure (SMILES): CC(=O)Nc1ccc(OC(C)=O)cc1 [Pro-APAP, 4-acetoxyacetanilide]
- Maximum (mass released) [1, 5]: 10.8 µg and 10.88 µg
- Minimum (mass released) [1, 5]: 4.73 µg
- Average Mass Released ([1]; 5 Hr, cumulative mass into receptor media, excised human skin, Franz cell 0.64 cm^2, 37° C., 50% DMSO in PEG 400): 7.15 µg and 7.16 µg
- Maximum (mass released) [1, 6]: 15.34 µg
- Minimum (mass released) [1, 6]: 10.04 µg
- Average Mass Released ([1]; 8 Hr, cumulative mass into receptor media, excised human skin, Franz cell 0.64 cm^2, 37° C., 50% DMSO in PEG 400): 12.20 µg
- Maximum (mass released) [1, 7]: 91.94 µg and 91.95 µg
- Minimum (mass released) [1, 7]: 55.45 µg
- Average Mass Released ([1]; 24 Hr, cumulative mass into receptor media, excised human skin, Franz cell 0.64 cm^2, 37° C., 50% DMSO in PEG 400): 76.15 µg and 76.16 µg
- concentration of Pro-APAP in receptor media, maximum [1, 8]: 15.78 µg/mL
- concentration of Pro-APAP in receptor media, minimum [1, 8]: 8.76 µg/mL
- concentration of Pro-APAP in receptor media, average ([1]; 24 h, excised human skin, Franz cell, 37° C., formulation solvent 50% DMSO in PEG 400, receptor 50% ethanol in PEG 400, blank subtracted): 12.36 µg/mL
- permeability (permeation) coefficient range ([1]; calculated, human skin, 24 h study, 50% DMSO in PEG 400): 3.61-5.98 μg/h/cm^2
- total cumulative amount permeated ([1]; human skin over 24 h, 50% DMSO in PEG 400): around 80 μg per 0.66 cm^2
- solubility in F1 (physchem): 12.5 mg/mL (≈ 64.7 mM)
- concentration of solution prepared in F3 [2]: 10100 µg/mL
- stability in solution in F3 ([3]; 50 mg/ml solution in F3, monitored visually for three months): stable
- stability in solution in F3 ([3]; 70 mg/ml solution of Pro-IBU in F3, monitored visually for three months): stable
- solubility ([4]; in chloroform, DMSO, and methanol): slightly soluble

- permeability (permeation) coefficient range [1]: 33.32-65.47 μg/h/cm^2
- lag time ([1]; human): 2 to 5 h
- Average Mass Released ([1]; human, 5 h): 18.06 µg
- Maximum (mass released) ([1]; human, 5 h): 54.17 µg
- Minimum (mass released) ([1]; human, 5 h): 0.00 µg
- mass detected in one of the wells ([1]; human, 5 h): 54 µg
- Average Mass Released ([1]; human, 8 h): 25.50 µg
- Maximum (mass released) ([1]; human, 8 h): 70.83 µg
- Minimum (mass released) ([1]; human, 8 h): 0.00 µg
- concentration of Pro-IBU in the receptor media ([1]; human, 24 h): ~200 µg/mL
- solubility (physchem): ≥ 24.9 mg/mL
- concentration of solution prepared in F3 [2]: 44600 µg/mL
Structure (SMILES): CCOC(=O)C(C)c1ccc(CC(C)C)cc1 (stereo not drawn) [Pro-IBU, ethyl 2-(4-isobutylphenyl)-propanoate]
- solubility ([4]; in DMSO and ethanol): soluble
